Results published in patent US12324893B2, “Triptan microporation delivery system” (PassPort Technologies, Inc., priority 2019, dated 2025).

Assay: in vivo
Conditions: rat; for AUC / Cmax: hairless; for Tmax: in vivo
Experimental: In this study, four groups of hairless rats were tested under the following conditions: (1) Group 1 (3 mg free base API, Suc: 0.5 mg, AA: 1 mg); (2) Group 2 (6 mg free base API, Suc: 0.5 mg, AA: 1 mg); (3) Group 3 (9 mg free base API, Suc: 0.5 mg, AA: 1 mg); and (4) Group 4 (6 mg free base API per 100 μL head of saline).
The given bioavailability of Table 18 is relative bioavailability against SC injection.

**Q.** Which AUC (sc, 6 mg) does the source give for `CNS(=O)(=O)Cc1ccc2[nH]cc(CCN(C)C)c2c1` [Sumatriptan Succinate] here?
**A.** 5380 ng·h/mL

**Q.** What about the Cmax (sc, 6 mg) of the same molecule?
**A.** 9780 ng/mL

**Q.** What about the AUC (topical or ocular, 3 mg) of the same molecule?
**A.** 2600 ng·h/mL

**Q.** And the Cmax (topical or ocular, 3 mg)?
**A.** 1040 ng/mL

**Q.** What about the AUC (topical or ocular, 6 mg) of the same molecule?
**A.** 3810 ng·h/mL

**Q.** And the Cmax (topical or ocular, 6 mg)?
**A.** 1400 ng/mL

**Q.** And the AUC (topical or ocular, 9 mg)?
**A.** 4390 ng·h/mL

**Q.** What about the Cmax (topical or ocular, 9 mg) of the same molecule?
**A.** 1580 ng/mL

**Q.** What about the Tmax (topical or ocular, 6 mg) of the same molecule?
**A.** 1.3 h

**Q.** And the Tmax (topical or ocular, 9 mg)?
**A.** 1.1 h
